Literature values, collected in patent US20040180086A1 (priority 2002, published 2004).

Test system: decarboxylation of peripheral levodopa
Settings: carbidopa administered in combination with levodopa

In the case of C[C@@](Cc1ccc(O)c(O)c1)(NN)C(=O)O [Carbidopa, S-α-hydrazino-3,4-dihydroxy-α-methylbenzenepropanoic acid monohydrate], the “reduction of the amount of levodopa required to produce a given response” value is given as “about 75%”.
